# In US20260078130A1, “NAMPT MODULATORS, PREPARATIONS, AND USES THEREOF” (SIRONAX LTD., priority 2022, published 2026):
# Where two headings read alike, the source gives them in different places.
# Key:
# [1] = molecular target: T1, human enzyme NAMPT (full length) (Homo sapiens, UniProt P43490); test: NMN fluorescence biochemical assay (stimulation of NMN synthesis by NAMPT); conditions: for EC50: concentration giving half-maximal activation, read-out: Enzymatic EC50; for Enzymatic Emax: fold change of maximal activation compared to DMSO
# T1 construct: human enzyme NAMPT (full length)
# T1 sequence (P43490 whole entry): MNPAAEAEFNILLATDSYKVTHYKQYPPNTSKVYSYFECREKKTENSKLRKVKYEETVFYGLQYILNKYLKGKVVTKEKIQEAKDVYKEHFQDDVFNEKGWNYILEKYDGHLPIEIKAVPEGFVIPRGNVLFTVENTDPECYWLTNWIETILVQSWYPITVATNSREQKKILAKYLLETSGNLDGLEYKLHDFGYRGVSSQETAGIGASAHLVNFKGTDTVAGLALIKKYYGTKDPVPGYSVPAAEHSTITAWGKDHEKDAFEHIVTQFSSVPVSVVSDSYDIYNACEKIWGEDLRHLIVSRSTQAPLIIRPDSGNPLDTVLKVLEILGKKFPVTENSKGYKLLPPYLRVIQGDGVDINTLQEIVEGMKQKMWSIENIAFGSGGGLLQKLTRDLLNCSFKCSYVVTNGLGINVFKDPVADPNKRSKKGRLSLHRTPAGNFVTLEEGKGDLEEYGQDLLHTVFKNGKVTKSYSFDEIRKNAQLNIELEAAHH
# Summary of the method: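 Full-length human NAMPT (100 nM) was preincubated 15 min at 37 °C with compound in 50 mM Tris-HCl pH 7.5, 10 mM MgCl2, 2 mM DTT, then reacted 1 h at 37 °C with 50 μM NAM, 100 μM PRPP, 4 mM ATP (stated solution concentrations). NMN was derivatised with acetophenone/KOH then formic acid and read at Ex/Em 382/445 nm; EC50 and Emax (fold over DMSO) reported.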
# [2] = tested on: endogenous NAMPT in U2OS cells; test: Cellular NAD+ modulation assay (NAD/NADH-Glo, U2OS cells); assay type: cell-based; conditions: Homo sapiens; for maximal fold induction: read-out: Cellular Emax
# Protocol: Certain compounds described herein were also assayed for their ability to stimulate the endogenous NAMPT in a native cellular environment in a cellular NAD^+ modulation assay. U2OS cells were grown in McCoy's 5A medium with 10% fetal bovine serum, in a humidified incubator with an atmosphere of 95% air and 5% CO2 at 37° C. The assays were initiated by plating 30 μL of U2OS cells in a culture medium with 10% fetal bovine serum, at a density of 3000 cells per well in a Corning® 384-well White/Clear Bottom Polystyrene Microplate. The plates were incubated in 37T incubators for a period of 16 hours. Test compounds with a series of concentrations in DMSO were added to the plates in a volume of 150 nL using Echo Liquid handlers. The plates are then incubated for 24 hours. The medium was removed from the wells, then 10 μL PBS was added to each well. To each well of cells in 10 μL of PBS, 10 μL of base solution with 1% DTAB was added. The plate was briefly mixed on a plate shaker to ensure homogeneity and cell lysis (5 mins). 10p L of 0.4N HCl was added per well. The plate was coved, and all samples were incubated for 15 minutes at 60° C. Then the plate was equilibrated for 10 minutes at room temperature. 10 μL of 0.5M Trizma® base was added to each well of acid-treated cells to neutralize the acid. Finally, 30 μL of NAD/NADH-Glo™ Detection Reagent was added. The plate was gently shaken to mix the samples. The plate was incubated for 40 minutes at room temperature. Luminescence was recorded using a luminometer. The potency measurements for the test compounds were quantified and represented as EC50 (concentration of a compound that gives half-maximal activation) and Emax (fold change of a compound's maximal activation compared to DMSO).
# [3] = NMN synthesis by purified human NAMPT (100 nM)
# [4] = 24 hours incubation with compound
# [5] = NMN fluorescence assay, purified human NAMPT 100 nM
# [6] = 24 hours incubation, cellular NAD+
"EC50 [1, 3] [µM]",Enzymatic Emax [1],"EC50 [2, 4] [µM]","EC50 [1, 5] [µM]","EC50 [2, 6] [µM]",Compound,"maximal fold induction [2, 4]","maximal fold induction [2, 6]"
≥ 5,B (3≥B>2),0.5 to 5,,,"CC1(C)c2ccccc2C(=O)N1Cc1ccc2[nH]c(=O)oc2c1 [Compound 52, 6-((1,1-dimethyl-3-oxoisoindolin-2-yl)methyl) benzo[d]oxazol-2(3H)-one]",> 1.5,
≥ 5,B (3≥B>2),5 to 50,,,"CC1c2ccccc2C(=O)N1Cc1cc(F)c2[nH]c(=O)oc2c1 (stereo not shown) [Compound 89, 4-fluoro-6-((1-methyl-3-oxoisoindolin-2-yl)methyl)benzo[d]oxazol-2(3H)-one]",1.2 to 1.5,
≥ 5,A (A>3),0.5 to 5,,,"O=C1c2ccccc2C(Cc2nccs2)N1Cc1ccc2[nH]c(=O)oc2c1 (stereo not shown) [Compound 140, 6-((1-oxo-3-(thiazol-2-ylmethyl)isoindolin-2-yl)methyl) benzo[d]oxazol-2(3H)-one]",> 1.5,
0.5 to 5,A (A>3),5 to 50,,,"Cn1cnc(C#N)c1CC1c2ccccc2C(=O)N1Cc1ccc2[nH]nnc2c1 (stereo not shown) [Compound 315, 5-((2-((1H-benzo[d][1,2,3]triazol-5-yl)methyl)-3-oxoisoindolin-1-yl)methyl)-1-methyl-1H-imidazole-4-carbonitrile]",1.2 to 1.5,
,B (3≥B>2),,< 0.5,0.5 to 5,"O=C1c2ccccc2C(Cc2nn(C3CNC3)cc2Cl)N1Cc1ccc2[nH]nnc2c1 (stereo not shown) [Compound 413, 2-((1H-benzo[d][1,2,3]triazol-5-yl)methyl)-3-((1-(azetidin-3-yl)-4-chloro-1H-pyrazol-3-yl)methyl)isoindolin-1-one]",,> 1.5
,C (2≥C),,0.5 to 5,5 to 50,"Cn1ncc(Cl)c1CC1c2cc(CN3CCCC3)ccc2C(=O)N1CC1CC2(CNC(=O)O2)C1 (stereo not shown) [Compound 462, 2-((3-((4-chloro-1-methyl-1H-pyrazol-5-yl)methyl)-1-oxo-5-(pyrrolidin-1-ylmethyl)isoindolin-2-yl)methyl)-5-oxa-7-azaspiro[3.4]octan-6-one]",,> 1.5
,A (A>3),,< 0.5,< 0.5,"Cn1ncc(Cl)c1CC1c2cc(C(F)F)ccc2C(=O)N1Cc1ccc2[nH]nnc2c1 (stereo not shown) [Compound 435, 2-((1H-benzo[d][1,2,3]triazol-5-yl)methyl)-3-((4-chloro-1-methyl-1H-pyrazol-5-yl)methyl)-5-(difluoromethyl)isoindolin-1-one]",,> 1.5
,C (2≥C),,≥ 5,5 to 50,"Cn1ncc(Cl)c1CC1c2ccccc2C(=O)N1CC1CC2(CNC(=O)N2)C1 (stereo not shown) [Compound 611, 3-((4-chloro-1-methyl-1H-pyrazol-5-yl)methyl)-2-((6-oxo-5,7-diazaspiro[3.4]octan-2-yl)methyl)isoindolin-1-one]",,1.2 to 1.5
,B (3≥B>2),,0.5 to 5,0.5 to 5,"COc1ccc(CN2C(=O)c3ccccc3C2Cc2ncccc2Br)cn1 (stereo not shown) [Compound 513, 3-((3-bromopyridin-2-yl)methyl)-2-((6-methoxypyridin-3-yl)methyl)isoindolin-1-one]",,> 1.5
0.5 to 5,B (3≥B>2),0.5 to 5,,,"CC1c2cc(CN3CC4(COC4)C3)ccc2C(=O)N1Cc1ccc2[nH]c(=O)oc2c1 (single isomer, unassigned) [Compound 187]",> 1.5,
,B (3≥B>2),,0.5 to 5,0.5 to 5,"COc1ccc(CN2C(=O)c3ccccc3C2Cc2c(Cl)cnn2C)nc1F (stereo not shown) [Compound 543, 3-((4-chloro-1-methyl-1H-pyrazol-5-yl)methyl)-2-((6-fluoro-5-methoxypyridin-2-yl)methyl)isoindolin-1-one]",,> 1.5
,B (3≥B>2),,0.5 to 5,0.5 to 5,"Cn1ncc(Cl)c1CC1c2ccccc2C(=O)N1C/C(F)=C/c1c[nH]nc1Cl (stereo not shown) [Compound 519, (Z)-3-((4-chloro-1-methyl-1H-pyrazol-5-yl)methyl)-2-(3-(3-chloro-1H-pyrazol-4-yl)-2-fluoroallyl)isoindolin-1-one]",,> 1.5
,B (3≥B>2),,< 0.5,< 0.5,"Cn1ncc(Cl)c1CC1c2ccccc2C(=S)N1CC1CC2(CNC(=O)O2)C1 (stereo not shown) [Compound 482, 2-((1-((4-chloro-1-methyl-1H-pyrazol-5-yl)methyl)-3-thioxoisoindolin-2-yl)methyl)-5-oxa-7-azaspiro[3.4]octan-6-one]",,> 1.5
< 0.5,A (A>3),< 0.5,,,"Cc1cccnc1C[C@H]1c2ccccc2C(=O)N1Cc1ccc2[nH]c(=O)oc2c1 [Compound 178, (S)-6-((1-((3-methylpyridin-2-yl)methyl)-3-oxoisoindolin-2-yl)methyl)benzo[d]oxazol-2(3H)-one]",> 1.5,
,B (3≥B>2),,0.5 to 5,0.5 to 5,"COc1ccc(CN2C(=O)c3ccccc3C2Cc2c(Cl)cnn2C)cn1 (stereo not shown) [Compound 574, 3-((4-chloro-1-methyl-1H-pyrazol-5-yl)methyl)-2-((6-methoxypyridin-3-yl)methyl)isoindolin-1-one]",,> 1.5
,C (2≥C),,≥ 5,5 to 50,"Cn1ncc(Cl)c1CC1c2ccccc2C(=O)N1CC1CC1C(N)=O (stereo not shown) [Compound 582, 2-((1-((4-chloro-1-methyl-1H-pyrazol-5-yl)methyl)-3-oxoisoindolin-2-yl)methyl)cyclopropane-1-carboxamide]",,1.2 to 1.5
≥ 5,C (2≥C),5 to 50,,,"O=C1c2ccccc2CN1Cc1ccc2[nH]nnc2c1 [Compound 289, 2-((1H-benzo[d][1,2,3]triazol-5-yl)methyl)isoindolin-1-one]",1.2 to 1.5,
,B (3≥B>2),,< 0.5,5 to 50,"O=C1c2ccccc2C(Cc2ncccc2Br)N1Cc1cc(F)c2[nH]nnc2c1 (stereo not shown) [Compound 329, 3-((3-bromopyridin-2-yl)methyl)-2-((7-fluoro-1H-benzo[d][1,2,3]triazol-5-yl)methyl) isoindolin-1-one]",,> 1.5
< 0.5,A (A>3),< 0.5,,,"O=C1c2ccc(C3CC3)cc2C(Cc2ncccc2Br)N1Cc1ccc2[nH]c(=O)oc2c1 (stereo not shown) [Compound 209, 6-((3-((3-bromopyridin-2-yl)methyl)-5-cyclopropyl-1-oxoisoindolin-2-yl)methyl)benzo[d]oxazol-2(3H)-one]",> 1.5,
,B (3≥B>2),,< 0.5,< 0.5,"Cn1ncc(Cl)c1CC1c2ccccc2S(=O)(=O)N1CC1CC2(CNC(=O)O2)C1 (stereo not shown) [Compound 540, 2-((3-((4-chloro-1-methyl-1H-pyrazol-5-yl)methyl)-1,1-dioxidobenzo[d]isothiazol-2(3H)-yl)methyl)-5-oxa-7-azaspiro[3.4]octan-6-one]",,> 1.5
,B (3≥B>2),,< 0.5,< 0.5,"CN(C)c1nn(C)c(CC2c3ccccc3C(=O)N2Cc2ccc3[nH]nnc3c2)c1Cl (stereo not shown) [Compound 420, 2-((1H-benzo[d][1,2,3]triazol-5-yl)methyl)-3-((4-chloro-3-(dimethylamino)-1-methyl-1H-pyrazol-5-yl)methyl)isoindolin-1-one]",,> 1.5

Compound,"EC50 [1, 3] [µM]",Enzymatic Emax [1],"EC50 [2, 4] [µM]","EC50 [1, 5] [µM]","EC50 [2, 6] [µM]","maximal fold induction [2, 4]","maximal fold induction [2, 6]"
"Cn1ncc(Cl)c1CC1c2ccccc2CCN1CC1CC2(CNC(=O)O2)C1 (stereo not shown) [Compound 610, 2-((1-((4-chloro-1-methyl-1H-pyrazol-5-yl)methyl)-3,4-dihydroisoquinolin-2(1H)-yl)methyl)-5-oxa-7-azaspiro[3.4]octan-6-one]",,B (3≥B>2),,≥ 5,0.5 to 5,,1.2 to 1.5
